From patent US8580556B2, “Sulfonylurea-responsive repressor proteins” (E. I. du Pont de Nemours and Company, priority 2008, dated 2013)

Assays:
[1] = pH 7; cited from earlier work
[2] = system: tobacco BY-2 cell culture; experiment: Tobacco BY-2 cell culture (dMMV-HRA) sulfonylurea resistance; assay type: cell-based, N. tabacum; conditions: 200 ppb chlorsulfuron
Text: In addition to the leaf assay it was desired to have an in planta assay to enable high throughput screening of SuR libraries for optimal plant functionality. We designed a system similar to the leaf assay but using tobacco BY-2 cell culture in 96-well format. BY-2 cell culture was transformed with a dMMV-HRA construct such that the culture would withstand treatment with target sulfonylurea test compounds.

[3] = system: tetA promoter (PtetA)-lacZ reporter in E. coli KM3; assay type: cell-based; conditions: L1 hits; 20 μg/ml
tet operator (tetO) = experiment: Electrophoretic gel mobility shift assay (EMSA), tet operator binding; conditions: ethametsulfuron repressor protein (L7A11) with TetO DNA; FIG. 7

Structure (SMILES)	logP [1]	growth of dMMV-HRA transformed BY-2 cell line [2]	activator potency compared with the starting ligand Harmony® [3]	release of repressor from operator sequence by inducer (tet operator (tetO))
COC(=O)c1sccc1S(=O)(=O)NC(=O)Nc1nc(C)nc(OC)n1 [Harmony®, thifensulfuron-methyl]	~0.02			
COc1nc(C)nc(NC(=O)NS(=O)(=O)c2ccccc2Cl)n1 [chlorsulfuron, 2 chloro N ((4 methoxy 6 methy 1,3,5 triazine 2 yl)aminocarbonyl)benzenesulfonamide, reference compound]		fully resistant	more potent activators	
Cc1c2c(c(O)c3c(O)cccc13)C(=O)[C@]1(O)C(=O)C(C(N)=O)=C(O)[C@@H](N(C)C)[C@@H]1C2 [atc, anhydrotetracycline]				No change in operator release
CCOc1nc(NC)nc(NC(=O)NS(=O)(=O)c2ccccc2C(=O)OC)n1 [ethametsulfuron, Ethametsulfuron-methyl, reference compound]			more potent activators	inducer preference for operator release
CCOC(=O)c1ccccc1S(=O)(=O)NC(=O)Nc1nc(Cl)cc(OC)n1 [chlorimuron, Chlorimuron-ethyl, reference compound]			more potent activators	
